From patent publication US12503448B2, “Antibacterial and antiparasitic quinoxaline-2,3-diamine derivatives” (University College Cardiff Consultants Limited, priority 2019, dated 2025) come the findings set out here.

In brackets after ≈: the same amount, converted by molar mass. Where two headings read alike, the source gives them in different places.

The test system of series [1] is Haemophilus influenzae 18391. The series is described as follows: Antibacterial MIC (ISO 20776-1). In kind it is cell-based. The settings on record: Haemophilus influenzae 18391, AMP/COA resistance, PBP/β-lactamase. The source says: (§1) In vitro Determination of Antibacterial Activity
(§2) Scientific Reports 8 (1), 2018. Bacterial strains of Enterococcus faecalis—ATCC 29212, NCTC 12201, ATCC 51299; Streptococcus pneumoniae—ATCC 49619, 18778, 21394, 21395; Haemophilus influenza—ATCC 49766, 18391, 17428; Staphylococcus aureus—NCTC 12493, ATCC BAA-077, ATCC 700698, 11051; used for testing the compounds, as previously described in “Clinical laboratory testing and in vitro diagnostics test systems—Susceptibility testing of infectious agents and evaluation of performance of antimicrobial susceptibility devices—Part 1: Reference methods for testing the in vitro activity of antimicrobial agentes against bacteria involved in infectious diseases, ISO/FDIS 20776-1:2006(E). All the procedures were carried out in a biosafety containment level 2.

Series [2] relates to Streptococcus pneumoniae ATCC 49619. The series can be described thus: Antibacterial MIC (ISO 20776-1). The settings on record: ATCC49619. Type of series: cell-based.
From the text: as §1, §2

Series [3] concerns Enterococcus faecalis NCTC 12201. The series can be described thus: Antibacterial MIC (ISO 20776-1). Type of series: cell-based. The settings on record: NCTC12201; Enterococcus faecalis NCTC 12201, Vancomycin resistance, vanA.
From the text: as §1, §2

Another series deals with S. mansoni adult worms. The series is described as follows: Adult worm drug screen (WHO scoring, WormassayGP2). Type of series: cell-based, Schistosoma mansoni. The following applies: for Selectivity Index Adult: HepG2 CC50 over adult worm EC50; for EC50: Schistosoma mansoni, adult worms. In short, it runs like this: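 Adult worms perfused from MF-1 mice 7 weeks after infection with 180 cercariae. Motility after drug exposure scored on the WHO-TDR 0–4 microscopic scale (0 = no movement, 4 = normal), checked by image-based motion analysis. Deposited eggs counted.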

The subject of series [4] is M. smegmatis mc^2 15 ATCC 700084. The series is described as follows: In vitro antibacterial activity. The following applies: Mycolicibacterium smegmatis, ATCC700084. Type of series: cell-based, Mycobacterium smegmatis.
For another series, the system named is MRSA EM RSA. The series is described as follows: In vitro antibacterial activity. The following applies: Staphylococcus aureus. Type of series: cell-based.
From the text: as §1, §2

Series [5] in a line: Metabolic stability in mouse liver microsomes. The settings on record: for microsomal CLint at 1 μM: liver microsomes; for half-life at 1 μM: microsomes. (In general: Liver microsomes are vesicles of endoplasmic reticulum, rich in cytochrome P450 enzymes.)
For a further series, the system named is MRSA USA 300. The series can be described thus: In vitro antibacterial activity. In kind it is cell-based. The settings on record: Staphylococcus aureus.
Another series concerns MRSA ATCC 33591. The series can be described thus: In vitro antibacterial activity. Type of series: cell-based. The settings on record: Staphylococcus aureus.
Series [6] is described as follows: Semi thermodynamic solubility. The following applies: thermodynamic from solid.
For series [7], the system named is Pseudomonas aeruginosa ATCC 27853. The series is described as follows: In vitro antibacterial activity. Type of series: cell-based. The following applies: ATCC27853.
The next series can be described thus: MTT assay on HepG2 cells. The following applies: human. Type of series: cell-based. The protocol:
MTT Assay on HepG2 Cells Human Hepatocyte Carcinoma (HepG2) cells (85011430, Sigma Aldrich) were used to assess the overt toxicity of these anti-infective compounds. […] A negative control (1% v/v Triton X-100; X100, Sigma-Aldrich) was also included in each screen. After addition of compounds, each plate was then incubated for a further 20 hrs before application of MTT reagent (prepared as described in Nur-[…], Bari A, Ghabbour […], Hoffmann […] Nat Prod. 2017 Jun. 23; 80(6):1900-1908 for the assessment of compound cytotoxicity using the MTT assay. […] The plate was then further incubated for 4 hrs. After incubation, each plate was blotted dry under the laminar flow to remove the MTT treated culture media. A 100 μl DMSO: isopropanol (1:1) solution was then added to each well and the plate was then subsequently incubated for 10 minutes at 37° C. Following incubation, each plate was shaken again and then absorbance measured at 570 nm. The absorbance reading was corrected based on the average value of the wells used as blank (no cells). […] The data obtained in this manner is shown in Table 1 in the columns labelled “HepG2”. […] The selectivity indexes for schistosomula and adult worms are shown in the final two columns in Table 1.

Setting [8] is: Streptococcus pneumoniae ATCC 49619, read-out: MIC.
Setting [9] is: M. smegmatis mc^2 15 ATCC 700084, read-out: MIC90.
[10] abbreviates: Pseudomonas aeruginosa ATCC 27853, read-out: MIC90.

`COc1ccc(Nc2nc3ccc([N+](=O)[O-])cc3nc2Nc2ccc(OC)c(C(F)(F)F)c2)cc1C(F)(F)F` [Compound 12, N^2, N^3-bis(4-methoxy-3-(tritluoromethyl)phenyl)-6-nitroquinoxaline-2,3-diamine]: the MIC in series [1] was 64 mg/L (≈ 116 µM); in series [2] (setting [8]), 8 mg/L (≈ 14.5 µM); in series [3], 0.5 mg/L (≈ 0.903 µM). In addition, the unbound share (fraction unbound) in the series “Plasma protein binding” worked out at 0.0134. In the series on S. mansoni adult worms, the “Selectivity Index Adult” value amounted to 664. In the series with S. mansoni adult worms, this compound gave an EC50 of 0.0085 µM. For the same compound, the MIC90 in series [4] (setting [9]) was above 125 mg/L; with MRSA EM RSA, 31.2 mg/L (≈ 56.5 µM); with MRSA USA 300, 15.6 mg/L (≈ 28.2 µM); with MRSA ATCC 33591, 31.2 mg/L (≈ 56.5 µM); in [7] (setting [10]), above 125 mg/L. The compound also yielded a microsomal CLint at 1 μM in [5] of 10.8 µL/min/mg. The half-life at 1 μM in series [5] stood at 2.13 h. Also, in series [6], the solubility (thermodynamic) is 4.09 µM (≈ 2.26 µg/mL).

For `O=[N+]([O-])c1ccc2nc(Nc3ccc(C(F)(F)F)cc3)c(Nc3ccc(C(F)(F)F)cc3)nc2c1` [Compound 11, 6-nitro-N^2, N^3-bis(4-(trifluoromethyl)phenyl)quinoxaline-2,3-diamine], the MIC in series [1] came out at 16 mg/L (≈ 32.4 µM); in series [2] (setting [8]) it was 2 mg/L (≈ 4.05 µM); in series [3], 0.06 mg/L (≈ 0.122 µM). Moreover, in the series on S. mansoni adult worms, the “Selectivity Index Adult” value was 2320. The EC50 in the series on S. mansoni adult worms amounted to 0.0067 µM. In addition, the MIC90 in series [4] (setting [9]) was 31.2 mg/L (≈ 63.3 µM); in the series on MRSA EM RSA, 3.91 mg/L (≈ 7.93 µM); with MRSA USA 300, below 3.91 mg/L; with MRSA ATCC 33591, below 3.91 mg/L; in series [7] (setting [10]), above 125 mg/L. Also, the microsomal CLint at 1 μM in series [5] stood at 0.134 µL/min/mg. Also, the half-life at 1 μM in series [5] amounted to 172 h. In series [6], this compound returned a solubility (thermodynamic) of 32.8 µM (≈ 16.2 µg/mL). Also, the midpoint of cytotoxicity in the series “MTT assay on HepG2 cells”, the CC50 at 24 h, lay at 15.6 µM.

With `O=[N+]([O-])c1ccc2nc(Nc3cccc(Cl)c3)c(Nc3cccc(Cl)c3)nc2c1` [Compound 5, N^2, N^3-bis(3-chlorophenyl)-6-nitroquinoxaline-2,3-diamine], the MIC in [1] stood at 8 mg/L (≈ 18.8 µM); in series [2] (Streptococcus pneumoniae), 4 mg/L (≈ 9.38 µM); in [3], 0.06 mg/L (≈ 0.141 µM). In addition, the “Selectivity Index Adult” value in the series with S. mansoni adult worms stood at 568. Also, a half-maximal effect with S. mansoni adult worms (EC50) was put at 0.012 µM. Also, the MIC90 in series [4] was above 125 mg/L; with MRSA EM RSA it was 3.91 mg/L (≈ 9.17 µM); against MRSA USA 300, 3.91 mg/L (≈ 9.17 µM); with MRSA ATCC 33591, 3.91 mg/L (≈ 9.17 µM); in [7] (Pseudomonas aeruginosa) it was above 125 mg/L.

Turning to `O=[N+]([O-])c1ccc2nc(Nc3ccc(F)c(C(F)(F)F)c3)c(Nc3ccc(F)c(C(F)(F)F)c3)nc2c1` [Compound 7, N^2, N^3-bis(4-fluoro-3-(trifluoromethyl)phenyl)-6-nitroquinoxaline-2,3-diamine], the MIC in series [1] is above 64 mg/L; in series [2] (Streptococcus pneumoniae), 8 mg/L (≈ 15.1 µM); in series [3], 0.5 mg/L (≈ 0.945 µM). The “Selectivity Index Adult” value in the series on S. mansoni adult worms is 705. For the same compound, a half-maximal response with S. mansoni adult worms (EC50) required 0.011 µM. The MIC90 was 62.5 mg/L (≈ 118 µM) in series [4]; 7.81 mg/L (≈ 14.8 µM) against MRSA EM RSA; below 3.91 mg/L with MRSA USA 300; below 3.91 mg/L against MRSA ATCC 33591; above 125 mg/L in series [7] (Pseudomonas aeruginosa).

As a reminder, the fraction unbound is the share of the substance not bound to proteins or other matrix. For orientation: EC50 means the concentration that produces a half-maximal response. Broadly, the MIC90 is the lowest concentration that inhibits either 90% of growth or 90% of the strains tested, depending on the study. As a reminder, the microsomal CLint is a measure of how fast metabolising enzymes remove a compound, apart from limits set by blood flow. For orientation: half-life means how long it takes for the measured level to halve. Low readings indicate rapid decline, high ones slow decline. For orientation: thermodynamic solubility means the concentration in solution at equilibrium with solid. For orientation: CC50 means the concentration at which the toxic effect on the cells reaches its halfway point. Read a high CC50 as lower toxicity to the cells.
